Patent US20240270762A1, “PENICILLIN-BINDING PROTEIN INHIBITORS” (priority 2021, published 2024)
≈ marks a conversion by molar mass, not a printed value.

Key:
[1] = tested on: P. aeruginosa CDC-0095; experiment: microbe, parasite or virus in culture; assay type: cell-based; settings: Pseudomonas aeruginosa, CDC0095, read-out: Minimum inhibitory concentration, P. aeruginosa CDC-0095
[2] = tested on: A. baumannii CDC-0045; experiment: microbe, parasite or virus in culture; assay type: cell-based; settings: Acinetobacter baumannii, CDC0045, read-out: MIC, A. baumannii CDC-0045
[3] = target: T1, A. baumannii PBP1a (Acinetobacter baumannii, UniProt A0ABX6CK30); experiment: Bocillin-FL competition binding via gel filtration, A. baumannii PBP1a; settings: competition binding assay using Bocillin-FL via gel filtration; read-out: A. baumannii PBP1a Potency
T1 sequence (A0ABX6CK30 1-851): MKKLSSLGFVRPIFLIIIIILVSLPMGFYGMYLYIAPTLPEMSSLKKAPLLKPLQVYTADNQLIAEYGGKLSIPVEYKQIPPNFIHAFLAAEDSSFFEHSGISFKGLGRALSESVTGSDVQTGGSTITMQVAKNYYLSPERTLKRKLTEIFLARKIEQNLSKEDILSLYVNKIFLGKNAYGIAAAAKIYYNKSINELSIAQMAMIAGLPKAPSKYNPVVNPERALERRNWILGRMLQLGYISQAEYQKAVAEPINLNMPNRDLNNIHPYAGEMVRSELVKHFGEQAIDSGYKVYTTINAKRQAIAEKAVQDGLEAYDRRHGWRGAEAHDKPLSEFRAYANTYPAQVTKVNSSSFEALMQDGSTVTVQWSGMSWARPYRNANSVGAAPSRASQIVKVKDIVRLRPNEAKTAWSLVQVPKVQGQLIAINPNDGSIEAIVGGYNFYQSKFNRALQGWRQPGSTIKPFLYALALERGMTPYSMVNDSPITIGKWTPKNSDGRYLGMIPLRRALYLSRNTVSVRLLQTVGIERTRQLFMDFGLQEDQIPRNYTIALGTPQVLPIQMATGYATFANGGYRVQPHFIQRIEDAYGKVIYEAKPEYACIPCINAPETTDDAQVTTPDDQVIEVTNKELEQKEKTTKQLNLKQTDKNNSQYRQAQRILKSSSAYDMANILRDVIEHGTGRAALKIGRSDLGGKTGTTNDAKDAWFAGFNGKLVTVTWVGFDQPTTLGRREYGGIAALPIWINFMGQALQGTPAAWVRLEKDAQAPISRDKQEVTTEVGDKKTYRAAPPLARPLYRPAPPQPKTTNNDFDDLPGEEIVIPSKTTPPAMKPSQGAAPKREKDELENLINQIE
Procedure, shortened: (§1)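 Enzyme was pre-incubated with rising inhibitor concentrations, then Bocillin-FL was added and incubated 15 minutes more. Bound probe was separated by gel filtration and fluorescence read. EC50 came from fitting fraction of PBP labelled versus inhibitor concentration to a Hill equation with ymin, ymax and n.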

[4] = tested on: A. baumannii CDC-0033; experiment: microbe, parasite or virus in culture; assay type: cell-based; settings: Acinetobacter baumannii, CDC0033, read-out: MIC, A. baumannii CDC-0033
[5] = target: A. baumannii PBP2 (Acinetobacter baumannii, UniProt D0C8Z9); experiment: Bocillin-FL competition binding via gel filtration, A. baumannii PBP2
A. baumannii PBP2, sequence (D0C8Z9 whole entry): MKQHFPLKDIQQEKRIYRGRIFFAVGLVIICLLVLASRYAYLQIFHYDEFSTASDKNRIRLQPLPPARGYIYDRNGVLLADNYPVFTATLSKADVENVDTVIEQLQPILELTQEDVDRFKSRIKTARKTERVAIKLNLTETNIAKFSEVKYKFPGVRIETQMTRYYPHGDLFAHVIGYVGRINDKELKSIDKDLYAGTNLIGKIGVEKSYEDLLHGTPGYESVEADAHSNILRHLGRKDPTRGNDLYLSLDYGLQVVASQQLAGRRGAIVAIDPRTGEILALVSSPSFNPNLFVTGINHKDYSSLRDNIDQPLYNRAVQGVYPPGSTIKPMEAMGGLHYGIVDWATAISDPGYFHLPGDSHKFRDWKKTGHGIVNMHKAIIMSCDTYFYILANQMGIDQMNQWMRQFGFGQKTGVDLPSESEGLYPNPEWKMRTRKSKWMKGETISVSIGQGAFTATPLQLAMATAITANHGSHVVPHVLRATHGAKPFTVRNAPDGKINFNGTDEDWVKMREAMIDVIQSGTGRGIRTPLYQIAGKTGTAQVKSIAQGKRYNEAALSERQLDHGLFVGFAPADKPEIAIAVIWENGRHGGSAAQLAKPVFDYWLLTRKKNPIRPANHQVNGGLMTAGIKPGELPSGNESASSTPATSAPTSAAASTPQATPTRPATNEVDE
Procedure, shortened: as §1

[6] = target: T2, PBP3 from Pseudomonas aeruginosa (PAO1) (Pseudomonas aeruginosa, UniProt G3XD46); experiment: Bocillin-FL fluorescence polarization competition binding, P. aeruginosa PBP3; settings: Binding affinity to P. aeruginosa PBP3; fluorescence polarization competition binding assay using Bocillin-FL; read-out: P. aeruginosa PBP3 Potency
T2 construct: made in house
T2 sequence (G3XD46 whole entry): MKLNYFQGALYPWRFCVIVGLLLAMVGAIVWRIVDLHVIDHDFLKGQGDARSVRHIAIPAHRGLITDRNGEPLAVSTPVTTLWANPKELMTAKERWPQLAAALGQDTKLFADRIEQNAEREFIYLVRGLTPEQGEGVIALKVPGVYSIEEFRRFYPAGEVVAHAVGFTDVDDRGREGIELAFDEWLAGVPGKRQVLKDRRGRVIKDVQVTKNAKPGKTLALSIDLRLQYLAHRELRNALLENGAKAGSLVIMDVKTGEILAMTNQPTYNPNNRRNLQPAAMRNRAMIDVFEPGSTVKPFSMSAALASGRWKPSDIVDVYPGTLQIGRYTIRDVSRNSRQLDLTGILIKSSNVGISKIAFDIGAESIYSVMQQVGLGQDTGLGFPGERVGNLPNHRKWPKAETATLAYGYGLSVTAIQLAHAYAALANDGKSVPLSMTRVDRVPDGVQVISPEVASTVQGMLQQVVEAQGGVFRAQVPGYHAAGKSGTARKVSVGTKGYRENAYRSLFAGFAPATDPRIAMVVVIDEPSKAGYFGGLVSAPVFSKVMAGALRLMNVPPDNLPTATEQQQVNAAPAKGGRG
Procedure, shortened: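 Purified PBPs pre-incubated with inhibitor (E. coli PBP3 1.5 μM, 30 min; P. aeruginosa PBP3 0.75 μM, A. baumannii PBP1a 1 μM and PBP3 0.2 μM, 15 min), then Bocillin-FL 0.1 μM (0.05 μM for PBP1a) added; FP read up to 60 min. EC50 = concentration halving bound Bocillin-FL.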

Compound	MIC [1]	MIC [2]	EC50 [3]	MIC [4]	EC50 [5]	IC50 [6]
O=C(NCCCN1CCN(C(=O)NC(C(=O)N[C@H]2Cc3ccc(F)c(C(=O)O)c3OB2O)c2cc(F)c(O)c(O)c2Cl)C(=O)C1=O)c1ccc(O)c(Cl)c1F (stereo partly drawn) [Example 419, (3R)-3-(2-(4-(3-(3-chloro-2-fluoro-4-hydroxybenzamido)propyl)-2,3-dioxopiperazine-1-carboxamido)-2-(2-chloro-5-fluoro-3,4-dihydroxyphenyl)acetamido)-7-fluoro-2-hydroxy-3,4-dihydro-2H-benzo[e][1,2]oxaborinine-8-carboxylic acid]	2 to 4 µg/mL (≈ 2.46 to 4.92 µM)	2 to 4 µg/mL (≈ 2.46 to 4.92 µM)	< 10 µM	8 to 16 µg/mL (≈ 9.85 to 19.7 µM)	< 10 µM	< 10 µM
O=C(NCCCN1CCN(C(=O)NC(C(=O)N[C@H]2Cc3ccc(F)c(C(=O)O)c3OB2O)c2cc(F)c(O)c(O)c2Cl)C(=O)C1=O)c1c(F)cc(O)cc1Cl (stereo partly drawn) [Example 421, (3R)-3-(2-(2-chloro-5-fluoro-3,4-dihydroxyphenyl)-2-(4-(3-(2-chloro-6-fluoro-4-hydroxybenzamido)propyl)-2,3-dioxopiperazine-1-carboxamido)acetamido)-7-fluoro-2-hydroxy-3,4-dihydro-2H-benzo[e][1,2]oxaborinine-8-carboxylic acid]	2 to 4 µg/mL (≈ 2.46 to 4.92 µM)	< 1 µg/mL	< 10 µM	2 to 4 µg/mL (≈ 2.46 to 4.92 µM)	< 10 µM	< 10 µM
O=C(NCCCN1CCN(C(=O)N[C@@H](C(=O)N[C@H]2Cc3ccc(F)c(C(=O)O)c3OB2O)c2cc(F)c(O)c(O)c2Cl)C(=O)C1=O)c1cc(F)c(O)c(F)c1 [Example 422, (R)-3-((R)-2-(2-chloro-5-fluoro-3,4-dihydroxyphenyl)-2-(4-(3-(3,5-difluoro-4-hydroxybenzamido)propyl)-2,3-dioxopiperazine-1-carboxamido)acetamido)-7-fluoro-2-hydroxy-3,4-dihydro-2H-benzo[e][1,2]oxaborinine-8-carboxylic acid]	< 1 µg/mL	< 1 µg/mL	< 10 µM	2 to 4 µg/mL (≈ 2.51 to 5.03 µM)	< 10 µM	< 10 µM
O=C(NCCCN1CCN(C(=O)NC(C(=O)N[C@H]2Cc3ccc(F)c(C(=O)O)c3OB2O)c2cc(F)c(O)c(O)c2Cl)C(=O)C1=O)c1cc(O)cc(O)c1 (stereo partly drawn) [Example 423, (3R)-3-(2-(2-chloro-5-fluoro-3,4-dihydroxyphenyl)-2-(4-(3-(3,5-dihydroxybenzamido)propyl)-2,3-dioxopiperazine-1-carboxamido)acetamido)-7-fluoro-2-hydroxy-3,4-dihydro-2H-benzo[e][1,2]oxaborinine-8-carboxylic acid]	< 1 µg/mL	< 1 µg/mL	< 10 µM	2 to 4 µg/mL (≈ 2.58 to 5.16 µM)	< 10 µM	< 10 µM
O=C(O)c1c(F)ccc2c1OB(O)[C@@H](NC(=O)C(NC(=O)N1CCN(C3CCN(C(=O)Nc4cccc(O)c4)CC3)C(=O)C1=O)c1cc(F)c(O)c(O)c1Cl)C2 (stereo partly drawn) [Example 424, (3R)-3-(2-(2-chloro-5-fluoro-3,4-dihydroxyphenyl)-2-(4-(1-((3-hydroxyphenyl)carbamoyl)piperidin-4-yl)-2,3-dioxopiperazine-1-carboxamido)acetamido)-7-fluoro-2-hydroxy-3,4-dihydro-2H-benzo[e][1,2]oxaborinine-8-carboxylic acid]	< 1 µg/mL	< 1 µg/mL	< 10 µM	< 1 µg/mL	< 10 µM	< 10 µM
O=C(O)c1c(F)ccc2c1OB(O)[C@@H](NC(=O)C(NC(=O)N1CCN(C3CCN(C(=O)c4cncc(O)c4)CC3)C(=O)C1=O)c1cc(F)c(O)c(O)c1Cl)C2 (stereo partly drawn) [Example 425, (3R)-3-(2-(2-chloro-5-fluoro-3,4-dihydroxyphenyl)-2-(4-(1-(5-hydroxynicotinoyl)piperidin-4-yl)-2,3-dioxopiperazine-1-carboxamido)acetamido)-7-fluoro-2-hydroxy-3,4-dihydro-2H-benzo[e][1,2]oxaborinine-8-carboxylic acid]	2 to 4 µg/mL (≈ 2.54 to 5.08 µM)	< 1 µg/mL	10 to 50 µM	< 1 µg/mL	10 to 50 µM	< 10 µM
O=C(O)c1c(F)ccc2c1OB(O)[C@@H](NC(=O)C(NC(=O)N1CCN(C3CCN(C(=O)c4ccc(O)cc4)CC3)C(=O)C1=O)c1cc(F)c(O)c(O)c1Cl)C2 (stereo partly drawn) [Example 427, (3R)-3-(2-(2-chloro-5-fluoro-3,4-dihydroxyphenyl)-2-(4-(1-(4-hydroxybenzoyl)piperidin-4-yl)-2,3-dioxopiperazine-1-carboxamido)acetamido)-7-fluoro-2-hydroxy-3,4-dihydro-2H-benzo[e][1,2]oxaborinine-8-carboxylic acid]	2 to 4 µg/mL (≈ 2.54 to 5.09 µM)	< 1 µg/mL	< 10 µM	2 to 4 µg/mL (≈ 2.54 to 5.09 µM)	< 10 µM	< 10 µM
O=C(O)c1c(F)ccc2c1OB(O)[C@@H](NC(=O)C(NC(=O)N1CCN(C3CCN(S(=O)(=O)c4cccc(O)c4)CC3)C(=O)C1=O)c1cc(F)c(O)c(O)c1Cl)C2 (stereo partly drawn) [Example 428, (3R)-3-(2-(2-chloro-5-fluoro-3,4-dihydroxyphenyl)-2-(4-(1-((3-hydroxyphenyl)sulfonyl)piperidin-4-yl)-2,3-dioxopiperazine-1-carboxamido)acetamido)-7-fluoro-2-hydroxy-3,4-dihydro-2H-benzo[e][1,2]oxaborinine-8-carboxylic acid]	2 to 4 µg/mL (≈ 2.43 to 4.87 µM)	< 1 µg/mL	< 10 µM	2 to 4 µg/mL (≈ 2.43 to 4.87 µM)	< 10 µM	< 10 µM
O=C(O)c1c(F)ccc2c1OB(O)[C@@H](NC(=O)C(NC(=O)N1CCN(C3CCN(S(=O)(=O)c4ccc(O)cc4)CC3)C(=O)C1=O)c1cc(F)c(O)c(O)c1Cl)C2 (stereo partly drawn) [Example 429, (3R)-3-(2-(2-chloro-5-fluoro-3,4-dihydroxyphenyl)-2-(4-(1-((4-hydroxyphenyl)sulfonyl)piperidin-4-yl)-2,3-dioxopiperazine-1-carboxamido)acetamido)-7-fluoro-2-hydroxy-3,4-dihydro-2H-benzo[e][1,2]oxaborinine-8-carboxylic acid]	2 to 4 µg/mL (≈ 2.43 to 4.87 µM)	< 1 µg/mL	< 10 µM	2 to 4 µg/mL (≈ 2.43 to 4.87 µM)	< 10 µM	< 10 µM
O=C(O)c1c(F)ccc2c1OB(O)[C@@H](NC(=O)C(NC(=O)N1CCN(C3CCN(C(=O)Cc4cccc(O)c4)CC3)C(=O)C1=O)c1cc(F)c(O)c(O)c1Cl)C2 (stereo partly drawn) [Example 474, (3R)-3-(2-(2-chloro-5-fluoro-3,4-dihydroxyphenyl)-2-(4-(1-(2-(3-hydroxyphenyl)acetyl)piperidin-4-yl)-2,3-dioxopiperazine-1-carboxamido)acetamido)-7-fluoro-2-hydroxy-3,4-dihydro-2H-benzo[e][1,2]oxaborinine-8-carboxylic acid]	2 to 4 µg/mL (≈ 2.5 to 5 µM)	< 1 µg/mL	10 to 50 µM	< 1 µg/mL	< 10 µM	< 10 µM
O=C(O)c1c(F)ccc2c1OB(O)[C@@H](NC(=O)C(NC(=O)N1CCN(CC3CCN(C(=O)c4cccc(O)c4)CC3)C(=O)C1=O)c1cc(F)c(O)c(O)c1Cl)C2 (stereo partly drawn) [Example 475, (3R)-3-(2-(2-chloro-5-fluoro-3,4-dihydroxyphenyl)-2-(4-((1-(3-hydroxybenzoyl)piperidin-4-yl)methyl)-2,3-dioxopiperazine-1-carboxamido)acetamido)-7-fluoro-2-hydroxy-3,4-dihydro-2H-benzo[e][1,2]oxaborinine-8-carboxylic acid]	< 1 µg/mL	< 1 µg/mL	10 to 50 µM	2 to 4 µg/mL (≈ 2.5 to 5 µM)	< 10 µM	< 10 µM
